Measured values as given in US11208407B2, “Substituted phenyl compounds as indoleamine 2,3-dioxygenase (IDO) inhibitors” (Merck Sharp & Dohme Corp., priority 2017, dated 2021).

biological target: IDO1 (Homo sapiens, UniProt P14902); assay: IDO1 Cellular Assay in HeLa Cells Stimulated with IFNγ; type: cell-based; conditions: IFNγ 100 ng/mL, 300 uM L-tryptophan, about 48 hours, read-out: IDO HeLa Cell Assay, IC50
Method: Biological Assays IDO1 Cellular Assay in HeLa Cells Stimulated with IFNγ
HeLa cells were cultured in complete HeLa culture medium (90% EMEM, 10% heat-inactivated fetal bovine serum) and expanded to about 1×10^9 cells. The cells were then collected and frozen down at 1×10^7 cells/vial in 1 mL frozen medium (90% complete HeLa culture medium, 10% DMSO).
Compounds to be tested were serially diluted in ten 3-fold steps in DMSO starting from 10 mM DMSO stocks in Echo low volume plate(s). Compound dilutions or DMSO alone were then dispensed from the dilution plate(s) into Greiner black 384-well assay plate(s) (catalog #781086, 50 nL/well) using an Echo 550 acoustic liquid handler (Labcyte).
Frozen HeLa cells were thawed and transferred into HeLa assay medium (99% complete HeLa culture medium, 1% Pen/Strep) with 20 mL medium/vial of cells. The cells were spun down at 250 g in a table top centrifuge for 5 min and suspended in same volume of HeLa assay medium. The cells were then counted and adjusted to a density of 2×10^5 cells/mL in HeLa assay medium. Sterile L-tryptophan were added to the cells with final concentration of 300 uM L-tryptophan. A small aliquot (2 mL/plate) of HeLa cells were set aside and were not treated with IFNγ, to serve as the Max-E control.
HeLa cells with and without IFNγ were dispensed to the respective wells of 384-well assay plates containing the compounds. The plates were incubated for about 48 hours at a 37° C., 5% CO2 incubator. Afterwards, 12 μL of 0.5 M methyl isonipecotate in dimethyl sulfoxide were added into each well and the plates were sealed and incubated at 37° C. without CO2 overnight. The plates were centrifuged for 1 min at 200×g. The resulting fluorescence was measured in a Spectramax plate reader (Molecular Devices) with a 400 nm excitation filter and a 510 nm emission filter.
The fluorescence intensity of each well was corrected for the background observed in wells with non-IFNγ-treated cells and was expressed as a fraction of the intensity observed in wells of IFNγ-treated cells and DMSO only. Potencies were calculated by linear least squares fit to the four parameter logistic IC50 equation.

IDO1, sequence (P14902 whole entry): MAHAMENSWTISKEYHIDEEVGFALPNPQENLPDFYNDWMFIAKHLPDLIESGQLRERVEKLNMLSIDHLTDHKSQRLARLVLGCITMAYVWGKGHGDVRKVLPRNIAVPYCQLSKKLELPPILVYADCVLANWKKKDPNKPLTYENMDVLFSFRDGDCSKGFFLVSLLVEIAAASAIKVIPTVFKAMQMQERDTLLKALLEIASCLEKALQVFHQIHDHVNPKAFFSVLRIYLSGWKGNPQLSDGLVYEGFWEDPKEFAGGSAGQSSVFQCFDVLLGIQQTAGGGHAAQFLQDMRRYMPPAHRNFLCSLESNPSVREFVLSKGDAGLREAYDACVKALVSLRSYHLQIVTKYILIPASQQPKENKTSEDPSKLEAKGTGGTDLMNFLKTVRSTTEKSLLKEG

Q: N#Cc1cnc2nc(C3(c4ccc(NC(=O)c5cccc(Cl)c5)cc4)CCC3)[nH]c2c1 [Example 2, 3-Chloro-N-(4-(1-(6-cyano-1H-imidazo[4,5-b]pyridin-2-yl)cyclobutyl)phenyl)benzamide] was tested. Which IC50 did it give?
A: The IC50 was 1.97 nM.

Q: O=C(Nc1ccc(C2(c3nc4ccccc4[nH]3)CCC2)cc1)c1cccc(Cl)c1 [Example 4, N-(4-(1-(1H-benzo[d]imidazol-2-yl)cyclobutyl)phenyl)-3-chlorobenzamide] was tested. Which IC50 did it give?
A: Its IC50 is 3.01 nM.

Q: For N#Cc1cccc(C(=O)Nc2ccc(C3(c4nc5cc(C(F)(F)F)cnc5[nH]4)CCC3)cc2)c1 [Example 6, 3-Cyano-N-(4-(1-(6-(trifluoromethyl)-3H-imidazo[4,5-b]pyridin-2-yl)cyclobutyl)phenyl)benzamide], which IC50 is on record?
A: Its IC50 is 3.18 nM.

Q: Which IC50 does the source give for O=C(Nc1ccc(C2(c3nc4cc(Br)cnc4[nH]3)CCC2)cc1Cl)c1cccc(Br)c1 [Example 12, 3-Bromo-N-(4-(1-(6-bromo-3H-imidazo[4,5-b]pyridin-2-yl)cyclobutyl)-2-chlorophenyl)benzamide] here?
A: Its IC50 is 1.73 nM.

Q: With N#Cc1cccc(C(=O)Nc2ccc(C3(c4nc5cc(C#N)cnc5[nH]4)CCC3)cc2Cl)c1 [Example 13, N-(2-chloro-4-(1-(6-cyano-3H-imidazo[4,5-b]pyridin-2-yl)cyclobutyl)phenyl)-3-cyanobenzamide] as the compound, how does the IC50 read?
A: The IC50 was 7.18 nM.

Q: Which IC50 does the source give for N#Cc1cccc(C(=O)Nc2ccc(C3(c4nc5cc(C#N)cnc5[nH]4)CCC3)cc2C#N)c1 [Example 14, 3-cyano-N-(2-cyano-4-(1-(6-cyano-3H-imidazo[4,5-b]pyridin-2-yl)cyclobutyl)phenyl)benzamide] here?
A: The IC50 was 140 nM.

Q: Cc1cc(C2(c3nc4cc(C#N)cnc4[nH]3)CCC2)ccc1NC(=O)c1cccc(C#N)c1 [Example 15, 3-Cyano-N-(4-(1-(6-cyano-3H-imidazo[4,5-b]pyridin-2-yl)cyclobutyl)-2-methylphenyl)benzamide] was tested. Which IC50 did it give?
A: The IC50 was 15.9 nM.

Q: With C=Cc1cc(C2(c3nc4cc(C#N)cnc4[nH]3)CCC2)ccc1Nc1ccn(C)n1 [Example 20, 2-(1-(4-((1-Methyl-1H-pyrazol-3-yl)amino)-3-vinylphenyl)cyclobutyl)-3H-imidazo[4,5-b]pyridine-6-carbonitrile] as the compound, how does the IC50 read?
A: Its IC50 is 176 nM.

Q: With Cn1ccc(Nc2ccc(C3(c4nc5cc(C#N)cnc5[nH]4)CCC3)cc2CO)n1 [Example 21, 2-(1-(3-(Hydroxymethyl)-4-((1-methyl-1H-pyrazol-3-yl)amino)phenyl)cyclobutyl)-3H-imidazo[4,5-b]pyridine-6-carbonitrile] as the compound, how does the IC50 read?
A: The IC50 was 819 nM.

Q: For N#Cc1cnc2[nH]c(C3(c4ccc(NC(=O)OC5CC5)cc4)CCC3)nc2c1 [Example 22, Cyclopropyl (4-(1-(6-cyano-3H-imidazo[4,5-b]pyridin-2-yl)cyclobutyl)phenyl)carbamate], which IC50 is on record?
A: The IC50 was 41.8 nM.

Q: With N#Cc1cccc(C(=O)Nc2ccc(C3(c4nc5ccc(Cl)cc5[nH]4)CC(O)C3)cc2)c1 (centres unmarked) [Example 23, N-(4-(1-(6-chloro-1H-benzo[d]imidazol-2-yl)-3-hydroxycyclobutyl)phenyl)-3-cyanobenzamide] as the compound, how does the IC50 read?
A: Its IC50 is 43.4 nM.

Q: N#Cc1cnc2nc(C3(c4ccc(C(=O)NC5CCCCC5)cc4)CC(F)(F)C3)[nH]c2c1 [Example 28, 4-(1-(6-Cyano-1H-imidazo[4,5-b]pyridin-2-yl)-3,3-difluorocyclobutyl)-N-cyclohexylbenzamide] was tested. Which IC50 did it give?
A: Its IC50 is 890 nM.

Q: Cc1cccc(NC(=O)c2ccc(C3(c4nc5ncc(C#N)cc5[nH]4)CC(F)(F)C3)cc2)n1 [Example 29, 4-(1-(6-Cyano-1H-imidazo[4,5-b]pyridin-2-yl)-3,3-difluorocyclobutyl)-N-(6-methylpyridin-2-yl)benzamide] was tested. Which IC50 did it give?
A: Its IC50 is 590 nM.

Q: How did the IC50 turn out when N#Cc1cccc(NC(=O)c2ccc(C3(c4nc5ncc(C(F)(F)F)cc5[nH]4)CCC3)cc2)c1 [Example 30, N-(3-cyanophenyl)-4-{1-[6-(trifluoromethyl)-1H-imidazo[4,5-b]pyridin-2-yl]cyclobutyl}benzamide] was run?
A: Its IC50 is 5.09 nM.

Q: For O=C(Nc1cccc(F)c1)c1ccc(C2(c3nc4ncc(C(F)(F)F)cc4[nH]3)CCC2)cc1 [Example 31, N-(3-fluorophenyl)-4-{1-[6-(trifluoromethyl)-1H-imidazo[4,5-b]pyridin-2-yl]cyclobutyl}benzamide], which IC50 is on record?
A: The IC50 was 2.09 nM.

Q: For O=C(Nc1ccc(F)cc1F)c1ccc(C2(c3nc4ncc(C(F)(F)F)cc4[nH]3)CCC2)cc1 [Example 32, N-(2,4-difluorophenyl)-4-{1-[6-(trifluoromethyl)-1H-imidazo[4,5-b]pyridin-2-yl]cyclobutyl}benzamide], which IC50 is on record?
A: Its IC50 is 2.65 nM.

Q: How did the IC50 turn out when O=C(Nc1cncc(Cl)c1)c1ccc(C2(c3nc4ncc(C(F)(F)F)cc4[nH]3)CCC2)cc1 [Example 33, N-(5-chloropyridin-3-yl)-4-{1-[6-(trifluoromethyl)-1H-imidazo[4,5-b]pyridin-2-yl]cyclobutyl}benzamide] was run?
A: Its IC50 is 9.94 nM.

Q: O=C(NC1CCCCC1)c1ccc(C2(c3nc4ncc(C(F)(F)F)cc4[nH]3)CCC2)cc1 [Example 34, N-cyclohexyl-4-{1-[6-(trifluoromethyl)-1H-imidazo[4,5-b]pyridin-2-yl]cyclobutyl}benzamide] was tested. Which IC50 did it give?
A: Its IC50 is 152 nM.

Q: How did the IC50 turn out when CC(C)CNC(=O)c1ccc(C2(c3nc4ncc(C(F)(F)F)cc4[nH]3)CCC2)cc1 [Example 35, N-(2-methylpropyl)-4-{1-[6-(trifluoromethyl)-1H-imidazo[4,5-b]pyridin-2-yl]cyclobutyl}benzamide] was run?
A: The IC50 was 39.6 nM.

Q: How did the IC50 turn out when N#Cc1ccc(F)c(NC(=O)c2ccc(C3(c4nc5ncc(C(F)(F)F)cc5[nH]4)CCC3)cc2)c1 [Example 36, N-(5-cyano-2-fluorophenyl)-4-{1-[6-(trifluoromethyl)-1H-imidazo[4,5-b]pyridin-2-yl]cyclobutyl}benzamide] was run?
A: Its IC50 is 7.69 nM.

Q: How did the IC50 turn out when O=C(Nc1cc(Cl)ccc1F)c1ccc(C2(c3nc4ncc(C(F)(F)F)cc4[nH]3)CCC2)cc1 [Example 37, N-(5-chloro-2-fluorophenyl)-4-{1-[6-(trifluoromethyl)-1H-imidazo[4,5-b]pyridin-2-yl]cyclobutyl}benzamide] was run?
A: The IC50 was 2.03 nM.

Q: Which IC50 does the source give for N#Cc1cccc(NC(=O)c2ccc(C3(c4nc5ncc(C#N)cc5[nH]4)CC(F)(F)C3)cc2)c1 [Example 38, 4-[1-(6-cyano-1H-imidazo[4,5-b]pyridin-2-yl)-3,3-difluorocyclobutyl]-N-(3-cyanophenyl)benzamide] here?
A: The IC50 was 5.09 nM.

Q: Which IC50 does the source give for COc1cc(C(F)(F)F)ncc1-c1ccc(C2(c3nc4cc(C(F)(F)F)cnc4[nH]3)COC2)cc1 [Example 41, 2-(3-{4-[4-methoxy-6-(trifluoromethyl)pyridin-3-yl]phenyl}oxetan-3-yl)-6-(trifluoromethyl)-3H-imidazo[4,5-b]pyridine] here?
A: Its IC50 is 7.64 nM.
